Structures can show the parent of a compound that is named as a salt.
System: healthy beagle dogs
Test: Subchronic action on blood cholesterol values of dogs (feeding experiment)
Assay type: in vivo, dog
Conditions: 8 mg/kg p.o. daily, after 2-week administration, cholestyramine (4 g/100 g of feed) in feed, compared with serum cholesterol before the administration period
Protocol: The subchronic action of the disubstituted pyridines on blood cholesterol values of dogs was tested in feeding experiments extending over several weeks. For this, the substance to be investigated was given p.o. once daily in a capsule to healthy beagle dogs together with the feed over a time period of several weeks. In addition, during the entire experimental period, i.e. before, during and after the administration period, the substance cholestyramine (4 g/100 g of feed) to be investigated was mixed with the feed as the […] sequestrant. Twice weekly, venous blood was taken from the dogs and the serum cholesterol was determined enzymatically. The serum cholesterol values during the administration period were compared with the serum cholesterol values before the administration period (controls).

CC(C)c1nc(C(C)C)c(/C=C/C(O)CC(O)CC(=O)O)c(-c2ccc(F)cc2)c1/C=C/C(O)CC(O)CC(=O)O (stereo not shown) [Na salt of Example 8, 2,6-diisopropyl 4-(4-fluorophenyl)-3,5-di-(sodiumerythro-(E)-3,5-dihydroxy-hept-6-enoat-7-yl)-pyridine]
Lowering of the serum cholesterol: about 22.4%

Reference: patent publication US5502057A, “Polysubstituted pyridines useful for treating lipoproteinanaemia and arteriosclerosis” (Bayer Aktiengesellschaft, priority 1988, dated 1996)
